Reference: PubChem BioAssay (NCI)
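Briefly, cells in 96-well plates were exposed to five compound concentrations for 48 h, and endpoints were estimated by linear interpolation. TGI: concentration producing complete growth inhibition.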

Key:
Experiment in all cases: NCI-60 cell line screen, 48 h
[1] = test system: UO-31 renal
[2] = test system: SW-620 colon
[3] = test system: KM12 colon
[4] = test system: HCT-116 colon
[5] = test system: MOLT-4 leukemia
[6] = test system: BT-549 breast
[7] = test system: NCI-H460 lung
[8] = test system: HOP-62 NSCLC
[9] = test system: IGROV1 ovarian
[10] = test system: SK-MEL-2 melanoma

Measured: TGI

CC1(C)[C@@H]2CC[C@@]1(C)CN(CCC[N+](C)(C)C)C2
> 100 µM: all assays above

Nc1ccc(N=Nc2c(S(=O)(=O)O)cc3ccccc3c2S(=O)(=O)O)cc1
> 100 µM: all assays above
